Source: ChEMBL document CHEMBL2157975 (Bioorg Med Chem Lett, 2012)

Tests used:
Apelin receptor = target: T1, Apelin receptor (Homo sapiens, UniProt P35414); assay: Antagonist activity at APJ receptor expressed in CHOK1 cells assessed as inhibition of apelin13-induced beta-arrestin recruitment after 90 mins by luminescence assay; type: functional, cell-based, CHO-K1
T1 sequence (P35414 whole entry): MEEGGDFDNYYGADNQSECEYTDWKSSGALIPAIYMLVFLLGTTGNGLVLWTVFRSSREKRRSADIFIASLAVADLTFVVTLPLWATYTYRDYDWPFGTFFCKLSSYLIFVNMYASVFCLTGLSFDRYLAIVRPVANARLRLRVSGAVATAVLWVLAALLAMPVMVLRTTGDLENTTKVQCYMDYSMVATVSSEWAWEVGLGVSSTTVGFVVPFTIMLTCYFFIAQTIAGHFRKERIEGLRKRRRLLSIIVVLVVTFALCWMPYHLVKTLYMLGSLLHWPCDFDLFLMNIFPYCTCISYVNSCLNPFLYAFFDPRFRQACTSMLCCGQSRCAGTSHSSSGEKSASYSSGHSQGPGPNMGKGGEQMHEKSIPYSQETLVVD

[1] = target: T2, Type-1 angiotensin II receptor (Homo sapiens, UniProt P30556); assay: Inhibition of AT1 receptor
T2 sequence (P30556 whole entry): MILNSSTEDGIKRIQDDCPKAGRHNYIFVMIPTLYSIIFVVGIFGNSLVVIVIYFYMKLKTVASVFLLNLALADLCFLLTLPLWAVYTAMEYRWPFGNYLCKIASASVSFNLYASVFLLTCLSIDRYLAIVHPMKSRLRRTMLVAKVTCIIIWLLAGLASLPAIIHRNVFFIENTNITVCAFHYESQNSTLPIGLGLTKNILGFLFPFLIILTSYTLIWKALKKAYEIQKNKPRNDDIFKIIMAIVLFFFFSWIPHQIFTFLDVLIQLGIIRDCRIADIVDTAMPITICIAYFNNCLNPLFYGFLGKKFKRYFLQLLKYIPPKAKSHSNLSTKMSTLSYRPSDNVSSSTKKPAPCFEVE

[2] = Selectivity ratio of IC50 for AT1 receptor to IC50 for APJ receptor (unknown receptor)
[3] = Drug degradation in aqueous acetonitrile solution assessed as ester bond hydrolysis; type: physicochemical; conditions: buffer

| Compound | IC50 (Apelin receptor) | IC50 [1] | Ratio IC50 [2] | Drug degradation [3] |
| --- | --- | --- | --- | --- |
| Cc1ccnc(SCc2cc(=O)c(OC(=O)C(C)C)co2)n1 | > 79 µM | > 79 µM |  |  |
| O=C(Oc1coc(CSc2ncccn2)cc1=O)c1ccc(-c2ccccc2)cc1 | > 79 µM | > 79 µM |  |  |
| Cc1ccnc(SCc2cc(=O)c(OC(=O)C(C)(C)C)co2)n1 | > 79 µM | > 79 µM |  |  |
| O=C(Oc1coc(CSc2ncccn2)cc1=O)c1ccc(Cl)cc1 |  | > 79 µM |  |  |
| Cc1cccc(C(=O)Oc2coc(CSc3nccc(C)n3)cc2=O)c1 | > 79 µM | > 79 µM |  |  |
| O=C(Oc1coc(CSc2ncccn2)cc1=O)c1ccc(Br)cc1 |  | > 79 µM |  |  |
| COc1cc(C(=O)Oc2coc(CSc3ncccn3)cc2=O)c([N+](=O)[O-])cc1OC | > 79 µM | > 79 µM |  |  |
| Cc1ccnc(SCc2cc(=O)c(OC(=O)c3cccc([N+](=O)[O-])c3)co2)n1 |  | > 79 µM |  |  |
| O=C(Oc1coc(CSc2ncccn2)cc1=O)c1ccc(Cl)c([N+](=O)[O-])c1 |  | > 79 µM | > 13 |  |
| Cc1ccnc(SCc2cc(=O)c(OC(=O)c3cnco3)co2)n1 | > 79 µM | > 79 µM |  |  |
| O=C(Oc1coc(CSc2ncccn2)cc1=O)c1ccccc1 | > 79 µM | > 79 µM |  |  |
| Cc1ccnc(SCc2cc(=O)c(OC(=O)c3ccc([N+](=O)[O-])cc3)co2)n1 |  | > 79 µM | > 23 |  |
| Cc1ccnc(SCc2cc(=O)c(OC(=O)c3ccc(Cl)c([N+](=O)[O-])c3)co2)n1 |  |  |  | Active |
| Cc1ccnc(SCc2cc(=O)c(OC(=O)c3ccc(F)cc3)co2)n1 | > 79 µM | > 79 µM |  |  |
| Cc1ccnc(SCc2cc(=O)c(O)co2)n1 | > 79 µM | > 79 µM |  |  |
| Cc1ccc(C(=O)Oc2coc(CSc3ncccn3)cc2=O)cc1C | > 79 µM | > 79 µM |  |  |
| Cc1ccnc(SCc2cc(=O)c(OC(=O)c3ccsc3)co2)n1 | > 79 µM | > 79 µM |  |  |
| Cc1ccnc(SCc2cc(=O)c(OC(=O)c3ccc(C#N)cc3)co2)n1 |  | > 79 µM | > 7 |  |
| Cc1ccnc(SCc2cc(=O)c(OCc3ccc(Cl)c([N+](=O)[O-])c3)co2)n1 | > 79 µM | > 79 µM |  |  |
| Cc1ccnc(SCc2cc(=O)c(OC(=O)c3ccc(C(F)(F)F)cc3)co2)n1 |  | > 79 µM |  |  |
| COc1ccc(SCc2cc(=O)c(OC(=O)c3ccc(Cl)c([N+](=O)[O-])c3)co2)cc1 | 8.27 µM | > 79 µM | > 9 |  |
| O=c1cc(CSc2ccccc2)occ1O | > 79 µM | > 79 µM |  |  |
| O=C(Oc1coc(CSc2ncccn2)cc1=O)c1cccc([N+](=O)[O-])c1 |  | > 79 µM |  |  |
| N#Cc1ccc(C(=O)Oc2coc(CSc3ncccn3)cc2=O)cc1 | 6.59 µM | > 79 µM | > 12 |  |

| Compound | IC50 (Apelin receptor) | IC50 [1] | Ratio IC50 [2] | Drug degradation [3] |
| --- | --- | --- | --- | --- |
| O=C(Oc1coc(CSc2ncccn2)cc1=O)c1ccc(S(=O)(=O)N2CCCCC2)cc1 | > 79 µM | > 79 µM |  |  |
| Cc1cc(C)nc(SCc2cc(=O)c(O)co2)n1 | > 79 µM | > 79 µM |  |  |
| COc1ccc(C(=O)Oc2coc(CSc3nccc(C)n3)cc2=O)cc1 | > 79 µM | > 79 µM |  |  |
| CCCCOc1ccc(C(=O)Oc2coc(CSc3ncccn3)cc2=O)cc1 | > 79 µM | > 79 µM |  |  |
| Cc1c(C(=O)Oc2coc(CSc3ncccn3)cc2=O)cccc1[N+](=O)[O-] |  | > 79 µM |  |  |
| Cc1ccnc(SCc2cc(=O)c(OC(=O)c3ccco3)co2)n1 | > 79 µM | > 79 µM |  |  |
| O=c1cc(CSc2ccc(F)cc2)occ1O | > 79 µM | > 79 µM |  |  |
| O=C(Oc1coc(CSc2ncccn2)cc1=O)c1ccc(F)cc1 | > 79 µM | > 79 µM |  |  |
| O=C(Oc1coc(CSc2ncccn2)cc1=O)c1ccc(C(F)(F)F)cc1 |  | > 79 µM |  |  |
| Cc1ccnc(SCc2cc(=O)c(NC(=O)c3ccccc3)co2)n1 | > 79 µM | > 79 µM |  |  |
| Cc1ccnc(SCc2cc(=O)c(OC(=O)c3ccc(Cl)cc3)co2)n1 | > 79 µM | > 79 µM |  |  |
| O=C(Oc1coc(CSc2ccc(Cl)cc2)cc1=O)c1ccc(Cl)c([N+](=O)[O-])c1 | 4.53 µM | > 79 µM | > 17 |  |
| Cc1ccnc(SCc2cc(=O)c(OC(=O)c3ccc(S(=O)(=O)N4CCCC4)cc3)co2)n1 |  | > 79 µM |  |  |
| Cc1ccnc(SCc2cc(=O)c(NC(=O)c3ccc([N+](=O)[O-])cc3)co2)n1 | > 79 µM | > 79 µM |  |  |
| Cc1ccc(C(=O)Oc2coc(CSc3ncccn3)cc2=O)cc1 | > 79 µM | > 79 µM |  |  |
| Cc1ccnc(SCc2cc(=O)c(OC(=O)c3cccc(Cl)c3)co2)n1 | > 79 µM | > 79 µM |  |  |
| Cc1ccnc(SCc2cc(=O)c(OC(=O)c3cc(Cl)ccc3[N+](=O)[O-])co2)n1 |  | > 79 µM |  |  |
| Cc1ccnc(S(=O)(=O)Cc2cc(=O)c(OC(=O)c3ccc(Cl)c([N+](=O)[O-])c3)co2)n1 | 3.21 µM | > 79 µM | > 25 |  |
| Cc1cc(C)nc(SCc2cc(=O)c(OS(=O)(=O)c3ccccc3)co2)n1 | > 79 µM | > 79 µM |  |  |
| Cc1ccnc(SCc2cc(=O)c(OC(=O)c3cccc(C#N)c3)co2)n1 | > 79 µM | > 79 µM |  |  |
| O=C(Oc1coc(CSc2ccc(OC(F)(F)F)cc2)cc1=O)c1ccc(Cl)c([N+](=O)[O-])c1 | 24 µM | > 79 µM | > 3 |  |
| CN(C)S(=O)(=O)c1ccc(C(=O)Oc2coc(CSc3ncccn3)cc2=O)cc1 | > 79 µM | > 79 µM |  |  |
| Cc1ccnc(SCc2cc(=O)c(OC(=O)c3ccc(OC(F)(F)F)cc3)co2)n1 | > 79 µM | > 79 µM |  |  |
| CC(=O)Oc1coc(CSc2nccc(C)n2)cc1=O | > 79 µM | > 79 µM |  |  |

| Compound | IC50 (Apelin receptor) | IC50 [1] | Ratio IC50 [2] | Drug degradation [3] |
| --- | --- | --- | --- | --- |
| Cc1ccc(C(=O)Oc2coc(CSc3ncccn3)cc2=O)cc1[N+](=O)[O-] |  | > 79 µM | > 11 |  |
| Cc1cc(C)nc(SCc2cc(=O)c(OS(=O)(=O)c3ccc([N+](=O)[O-])cc3)co2)n1 | > 79 µM | > 79 µM |  |  |
| Cc1ccc(SCc2cc(=O)c(OC(=O)c3ccc(Cl)c([N+](=O)[O-])c3)co2)cc1 | 12.8 µM | > 79 µM | > 6 |  |
| O=C(Oc1coc(CSc2ccccc2)cc1=O)c1ccc(Cl)c([N+](=O)[O-])c1 | 9.61 µM | > 79 µM | > 8 |  |
| Cc1ccc(C(=O)Oc2coc(CSc3nccc(C)n3)cc2=O)cc1 | > 79 µM | > 79 µM |  |  |
| Cc1ccnc(SCc2cc(=O)c(OCc3ccccc3)co2)n1 | > 79 µM | > 79 µM |  |  |
| Cc1ccnc(SCc2cc(=O)c(OC(=O)c3ccccc3)co2)n1 | > 79 µM | > 79 µM |  |  |
| O=C(Oc1coc(CSc2ncccn2)cc1=O)c1ccc(S(=O)(=O)N2CCCC2)cc1 | > 79 µM | > 79 µM |  |  |
| Cc1ccnc(SCc2cc(=O)c(OC(=O)c3ccc([N+](=O)[O-])o3)co2)n1 | > 79 µM | > 79 µM |  |  |
| COc1cccc(C(=O)Oc2coc(CSc3nccc(C)n3)cc2=O)c1 | > 79 µM | > 79 µM |  |  |
| Cc1ccnc(SCc2cc(=O)c(OC(=O)c3cc([N+](=O)[O-])ccc3Cl)co2)n1 |  | > 79 µM |  |  |
| O=c1cc(CSc2ncccn2)occ1O | > 79 µM | > 79 µM |  |  |
| CC(C)Oc1ccc(C(=O)Oc2coc(CSc3ncccn3)cc2=O)cc1 | > 79 µM | > 79 µM |  |  |
| CCN(CC)S(=O)(=O)c1ccc(C(=O)Oc2coc(CSc3ncccn3)cc2=O)cc1 | > 79 µM | > 79 µM |  |  |
| Cc1ccnc(SCc2cc(=O)c(OC(=O)c3ccccc3C)co2)n1 | > 79 µM | > 79 µM |  |  |
| Cc1ccnc(SCc2cc(=O)c(OC(=O)c3ccc(C)c([N+](=O)[O-])c3)co2)n1 |  | > 79 µM | > 17 |  |
| O=C(Oc1coc(CSc2ncccn2)cc1=O)c1ccc(S(=O)(=O)N2CCOCC2)cc1 | > 79 µM | > 79 µM |  |  |
| O=C(Oc1coc(CSc2ncccn2)cc1=O)c1cc(Cl)ccc1[N+](=O)[O-] | > 79 µM | > 79 µM |  |  |
| Cc1ccnc(SCc2cc(=O)c(OC(=O)c3ccccc3Cl)co2)n1 | > 59 µM | > 79 µM |  |  |
| COc1ccc(C(=O)Oc2coc(CSc3ncccn3)cc2=O)cc1 | > 79 µM | > 79 µM |  |  |
| CCOc1ccc(C(=O)Oc2coc(CSc3ncccn3)cc2=O)cc1 | > 79 µM | > 79 µM |  |  |
| CC(C)(C)c1ccc(C(=O)Oc2coc(CSc3ncccn3)cc2=O)cc1 | > 79 µM | > 79 µM |  |  |
